One test concerns RSV strain A2. Description: Antiviral detection test against RSV strain A2 based on ELISA method (Hep-2 cells). The class given is cell-based, Respiratory Syncytial Virus. As to conditions: RSV A2 virus strain, Hep-2 cells, ELISA OD450. The procedure:
Test Example 1: Antiviral detection test of small molecules against RSV strain A2 based on ELISA method
• Source of cell line: Nanjing Kebai Biotechnology Co., Ltd. • Cell type: human laryngeal carcinoma epithelial cells Hep-2
• 96-well culture plate (Cat.No. 3610, Corning Costar); • Fetal bovine serum (Cat.No. 10099-141, GIBCO); • DMEM medium (Cat.No. 11995500BT, GIBCO); • Envision 2104 microplate reader.
• 1. Day 1: The Hep-2 cells were seeded into a 96-well plate at a density of 1×10^4 cells/well; • 2. Day 2: • A. Compound dilution: The compound in the first well was diluted to 9 µM, and 3-fold gradient dilution was performed, with a total of 10 gradients; • B. The Hep-2 cell plate prepared on Day 1 was taken out from the incubator, the supernatant was discarded, and 100 PFU/well/50 µL of the RSV A2 virus was added to each well. The plate was stood at 37°C in a 5% CO2 incubator for 2 hours, the supernatant was aspirated and discarded, and then 100 µL of the gradient-diluted compound or DMEM maintenance medium containing 2% FBS was added to each well; • 3. Day 5: • A. Add fixative: The gradient-diluted compound or medium was discarded from the wells, and 100 µL/well of fixative (4% paraformaldehyde) was added. The plate was stood at room temperature for 10 minutes, and then was washed once with 250 µL PBS; • B. 100 µL/well of a blocking solution was added, and the plate was incubated at 37°C in a 5% CO2 incubator for 30 minutes; • C. After incubation, the detection antibody (Anti RSV Fpro) was added at 0.3 µg/50 µL/well (6 µg/mL), and the plate was incubated at 37°C in a 5% CO2 incubator for 1 hour; • D. After incubation, the HRP secondary antibody was added (diluted 10,000-fold with 0.2% BSA), and the plate was incubated at 37°C in a 5% CO2 incubator for 1 hour; • E. After incubation, the wells were washed for 4 times with PBST, 250 µL/well, each washing was allowed to stand for 5 minutes, and the liquid in the wells was shaken off after completion of the washing; • F. 100 µL/well of a development solution was added, the plate was incubated at room temperature in the dark for 20 minutes, and 50 µL/well of a reaction termination solution was added. The plate was tapped gently to mix the solutions, and the absorbance at 450 nm was measured using the microplate reader. • 4. Data analysis • Inhibition rate of the compound against the virus = 100% - (SC - CC)/(VC - CC) × 100% • SC: OD450 value of the sample (cells + test compound + virus) • CC: OD450 value of the normal growing cell control (cells) • VC: OD450 value of the virus growth control (cells + virus)
The software Graphpad Prism 6 was used, and the calculation formula XY-analysis/Nonlinear regression (curve fit)/Dose response-Inhibition/log (inhibition) vs. response-Variable slope (four parameters) was adopted to fit the IC50 curve and calculate the IC50 value.
In general terms: An ELISA detects its analyte on a solid surface through an enzyme-linked reagent.
As usually defined, the IC50 is the concentration needed to halve the response being measured. A higher IC50 goes with a need for much substance. Molecule “4-(4-(((3-aminooxetan-3-yl)methyl)amino)-6-methylquinazolin-2-yl)-1-((deuteromethyl)imino)-2,3,4,5-tetrahydro-1H-1λ^4-benzo[f][1,4]thiazepine-1-oxide [Example 2-24]” gave an IC50 of less than 10 nM.

In turn, `Cc1ccc2nc(N3CCS(=O)(=NC(N)=O)c4ccccc4C3)nc(NCC3(N)COC3)c2c1` (stereo not shown) [Example 2-16, 1-(4-(4-(((3-aminooxetan-3-yl)methyl)amino)-6-methylquinazolin-2-yl)-1-oxido-2,3,4,5-tetrahydro-1λ^4-benzo[f][1,4]thiazepin-1-ylidene)urea] registered an IC50 greater than 10 nM. Consider `Cc1ccc2nc(N3CCS(=O)(=NCC4CCO4)c4ccccc4C3)nc(N3CC[C@@H](N)C3)c2c1` (stereo partly shown) [Example 4-39], for which the IC50 was less than 10 nM.

Still in this test, the particulars now being: human respiratory syncytial virus; RSV A2 virus strain, Hep-2 cells, ELISA OD450.
The molecule `CN=S1(=O)CCN(c2nc(NCC3(N)COC3)c3cc(C)ccc3n2)Cc2ccccc21` (stereo not shown) [Example 2-14, 4-(4-(((3-aminooxetan-3-yl)methyl)amino)-6-methylquinazolin-2-yl)-1-(methylimino)-2,3,4,5-tetrahydro-1H-1λ^4-benzo[f][1,4]thiazepine-1-oxide] registered an IC50 of less than 10 nM. In turn, `Cc1ccc2nc(N3CCS(=N)(=O)c4ccccc4C3)nc(NCC3(N)COC3)c2c1` (stereo not shown) [Example 2-23, 4-(4-(((3-aminooxetan-3-yl)methyl)amino)-6-methylquinazolin-2-yl)-1-imino-2,3,4,5-tetrahydro-1H-1λ^4-benzo[f][1,4]thiazepine-1-oxide] showed an IC50 of less than 10 nM.

The molecule `Cc1ccc2nc(N3CCS(=O)(=NC4CC4)c4ccccc4C3)nc(NCC3(N)COC3)c2c1` (stereo not shown) [Example 2-26, 4-(4-(((3-aminooxetan-3-yl)methyl)amino)-6-methylquinazolin-2-yl)-1-(cyclopropylimino)-2,3,4,5-tetrahydro-1H-1λ^4-benzo[f][1,4]thiazepine-1-oxide] returned an IC50 of less than 10 nM.

Molecule `CC(=O)N=S1(=O)CCN(c2nc(NCC3(N)COC3)c3cc(C)ccc3n2)Cc2ccccc21` (stereo not shown) [Example 2-31, N-(4-(4-(((3-aminooxetan-3-yl)methyl)amino)-6-methylquinazolin-2-yl)-1-oxido-2,3,4,5-tetrahydro-1λ^4-benzo[f][1,4]thiazepin-1-ylidene)acetamide] yielded an IC50 of less than 10 nM. `Cc1ccc2nc(N3CCS(=O)(=NC(=O)C4(F)CC4)c4ccccc4C3)nc(NCC3(N)COC3)c2c1` (stereo not shown) [Example 2-32, N-(4-(4-(((3-aminooxetan-3-yl)methyl)amino)-6-methylquinazolin-2-yl)-1-oxido-2,3,4,5-tetrahydro-1λ^4-benzo[f][1,4]thiazepin-1-ylidene)-1-fluorocyclopropane-1-carboxamide] had an IC50 of less than 10 nM. Same read-out and setting: with `CNC(=O)N=S1(=O)CCN(c2nc(NCC3(N)COC3)c3cc(C)ccc3n2)Cc2ccccc21` (stereo not shown) [Example 2-37, 1-(4-(4-(((3-aminooxetan-3-yl)methyl)amino)-6-methylquinazolin-2-yl)-1-oxido-2,3,4,5-tetrahydro-1λ^4-benzo[f][1,4]thiazepin-1-ylidene)-3-methylurea] the figure was less than 10 nM; with `Cc1ccc2nc(N3CCS(=O)(=Nc4cnn(C)c4)c4ccccc4C3)nc(NCC3(N)COC3)c2c1` (stereo not shown) [Example 2-38, 4-(4-(((3-aminooxetan-3-yl)methyl)amino)-6-methylquinazolin-2-yl)-1-((1-methyl-1H-pyrazol-4-yl)imino)-2,3,4,5-tetrahydro-1H-1λ^4-benzo[f][1,4]thiazepine-1-oxide], greater than 10 nM. The molecule `CCN=S1(=O)CCN(c2nc(NCC3(N)COC3)c3cc(C)ccc3n2)Cc2ccccc21` (stereo not shown) [Example 2-43, 4-(4-(((3-aminooxetan-3-yl)methyl)amino)-6-methylquinazolin-2-yl)-1-(ethylimino)-2,3,4,5-tetrahydro-1H-1λ^4-benzo[f][1,4]thiazepine-1-oxide] returned an IC50 of less than 10 nM. On to `NC1(CNc2nc(N3CCS(=O)(=NC4CC4)c4ccccc4C3)nc3ccc(C(F)F)cc23)COC1` (stereo not shown) [Example 2-46, 4-(4-(((3-aminooxetan-3-yl)methyl)amino)-6-(difluoromethyl)quinazolin-2-yl)-1-(cyclopropylimino)-2,3,4,5-tetrahydro-1H-1λ^4-benzo[f][1,4]thiazepine-1-oxide], for which the IC50 was less than 10 nM. Molecule `Cc1ccc2nc(N3CCS(=O)(=NC4CC4)c4ccccc4C3)nc(N3CC(O)(CN)C3)c2c1` (stereo not shown) [Example 4-2, 4-(4-(3-(aminomethyl)-3-hydroxyazetidin-1-yl)-6-methylquinazolin-2-yl)-1-(cyclopropylimino)-2,3,4,5-tetrahydro-benzo[f][1,4]thiazepine-1-oxide] gave an IC50 of less than 10 nM. `Cc1ccc2nc(N3CCS(=O)(=NCCF)c4ccccc4C3)nc(NCC3(N)COC3)c2c1` (stereo not shown) [Example 4-5, 4-(4-(((3-aminooxetan-3-yl)methyl)amino)-6-methylquinazolin-2-yl)-1-((2-fluoroethyl)imino)-2,3,4,5-tetrahydrobenzo[f][1,4]thiazepine-1-oxide] returned an IC50 of less than 10 nM. For the molecule `Cc1ccc2nc(N3CCS(=O)(=NCC(F)F)c4ccccc4C3)nc(NCC3(N)COC3)c2c1` (stereo not shown) [Example 4-6, 4-(4-(((3-aminooxetan-3-yl)methyl)amino)-6-methylquinazolin-2-yl)-1-((2,2-difluoroethyl)imino)-2,3,4,5-tetrahydrobenzo[f][1,4]thiazepine-1-oxide], the IC50 is less than 10 nM. `Cc1ccc2nc(N3CCS(=O)(=NC4CC4)c4ccccc4C3)nc(N[C@@H]3CNC[C@H]3O)c2c1` (stereo partly drawn) [Example 4-10, 1-(cyclopropylimino)-4-(4-(((3R,4R)-4-hydroxypyrrolidin-3-yl)amino)-6-methylquinazolin-2-yl)-2,3,4,5-tetrahydro-benzo[f][1,4]thiazepine-1-oxide] had an IC50 of less than 10 nM.

`Cc1ccc2nc(N3CCS(=O)(=NC4CC4)c4ccccc4C3)nc(N[C@H]3C[C@@H](N)C3)c2c1` (stereo partly drawn) [Example 4-13, 4-(4-(((1R,3S)-3-aminocyclobutyl)amino)-6-methylquinazolin-2-yl)-1-(cyclopropylimino)-2,3,4,5-tetrahydro-benzo[f][1,4]thiazepine-1-oxide] registered a 50% inhibitory concentration (IC50) of less than 10 nM. Consider `NC1(CNc2nc(N3CCS(=O)(=NC4CCC4)c4ccccc4C3)nc3ccc(C(F)F)cc23)COC1` (stereo not shown) [Example 4-16, 4-(4-(((3-aminooxetan-3-yl)methyl)amino)-6-(difluoromethyl)quinazolin-2-yl)-1-(cyclobutylimino)-2,3,4,5-tetrahydro-benzo[f][1,4]thiazepine-1-oxide], for which the IC50 is less than 10 nM. Molecule `N[C@@H]1CCN(c2nc(N3CCS(=O)(=NC4CC4)c4ccccc4C3)nc3ccc(C(F)F)cc23)C1` (stereo partly shown) [Example 4-28] registered an IC50 of less than 10 nM.

On to `Cc1ccc2nc(N3CCS(=O)(=NC4CC4)c4ccccc4C3)nc(N3CC(N)(CO)C3)c2c1` (stereo not shown) [Example 4-32, 4-(4-(3-amino-3-(hydroxymethyl)azetidin-1-yl)-6-methylquinazolin-2-yl)-1-(cyclopropylimino)-2,3,4,5-tetrahydro-benzo[f][1,4]thiazepine-1-oxide], for which the IC50 was less than 10 nM. The molecule `Cc1ccc2nc(N3CCS(=O)(=NCCCC#N)c4ccccc4C3)nc(N3CC[C@@H](N)C3)c2c1` (stereo partly shown) [Example 4-47] came in with an IC50 of less than 10 nM. `Cc1ccc2nc(N3CCS(=O)(=NCCC(C)(C)O)c4ccccc4C3)nc(N3CC[C@@H](N)C3)c2c1` (stereo partly shown) [Example 4-56] registered an IC50 of less than 10 nM.

The same test, now with this note: ratio of IC50 values against RSV A2 virus strain; control compound AK0529.
“4-(4-(((3-aminooxetan-3-yl)methyl)amino)-6-methylquinazolin-2-yl)-1-((deuteromethyl)imino)-2,3,4,5-tetrahydro-1H-1λ^4-benzo[f][1,4]thiazepine-1-oxide [Example 2-24]”: the “AK0529 IC50 / IC50 of the compounds of the present invention” value is recorded as “ratio ≥20”. The same measure, in the same setting: with `NC1(CNc2nc(N3CCS(=O)(=NC4CC4)c4ccccc4C3)nc3ccc(C(F)F)cc23)COC1` (stereo not shown) [Example 2-46, 4-(4-(((3-aminooxetan-3-yl)methyl)amino)-6-(difluoromethyl)quinazolin-2-yl)-1-(cyclopropylimino)-2,3,4,5-tetrahydro-1H-1λ^4-benzo[f][1,4]thiazepine-1-oxide] the entry was “ratio ≥20”. The same measure, in the same setting: with `NC1(CNc2nc(N3CCS(=O)(=NC4CCC4)c4ccccc4C3)nc3ccc(C(F)F)cc23)COC1` (stereo not shown) [Example 4-16, 4-(4-(((3-aminooxetan-3-yl)methyl)amino)-6-(difluoromethyl)quinazolin-2-yl)-1-(cyclobutylimino)-2,3,4,5-tetrahydro-benzo[f][1,4]thiazepine-1-oxide] the entry was “ratio ≥20”.
